Experiments:
SARS-CoV-2 [1] = assay: Inhibition of SARS-CoV-2 pseudoparticle entry in Huh-7 cells, assessed by luciferase assay after 72 hrs; assay type: functional, Homo sapiens; conditions: Severe acute respiratory syndrome coronavirus 2, Huh-7, 72 h; for inhibition at 1 µM: CONC 1 uM; for inhibition at 5 µM: CONC 5 uM
[2] = Assessment of cytotoxicity in Huh-7 cells, assessed as % inhibition of cell viability by Celltiter-Glo assay after 48 hrs; assay type: toxicity, cell-based; conditions: human, read-out: Inhibition; for cytotoxicity at 48 h, 1 µM: conc 1 uM; for cytotoxicity at 48 h, 5 µM: conc 5 uM
SARS-CoV-2 [3] = assay: Inhibition of SARS-CoV-2 pseudoparticle entry in human lung Airway Chip at reported drug Cmax, assessed by qRT-PCR after 48 hrs; assay type: functional; conditions: Severe acute respiratory syndrome coronavirus 2, Lung epithelium

SMILES	inhibition at 1 µM (SARS-CoV-2 [1]) [%]	inhibition at 5 µM (SARS-CoV-2 [1]) [%]	cytotoxicity at 48 h, 1 µM [2] [%]	cytotoxicity at 48 h, 5 µM [2] [%]	inhibition at 3.89 µM (SARS-CoV-2 [3]; CONC 3.89 uM) [%]	inhibition at 20.04 µM (SARS-CoV-2 [3]; CONC 20.04 uM) [%]	inhibition at 0.81 µM (SARS-CoV-2 [3]; CONC 0.81 uM) [%]	inhibition at 1.91 µM (SARS-CoV-2 [3]; CONC 1.91 uM) [%]	inhibition at 2.98 µM (SARS-CoV-2 [3]; CONC 2.98 uM) [%]	inhibition at 1.24 µM (SARS-CoV-2 [3]; CONC 1.24 uM) [%]	inhibition at 0.83 µM (SARS-CoV-2 [3]; CONC 0.83 uM) [%]
CCOC(=O)c1c(CSc2ccccc2)n(C)c2cc(Br)c(O)c(CN(C)C)c12 [UMIFENOVIR]	5	75	1	10	20						
CCCCc1oc2ccccc2c1C(=O)c1cc(I)c(OCCN(CC)CC)c(I)c1 [AMIODARONE]	55	70	1	2		20					
COc1ccc(CCN(C)CCCC(C#N)(c2ccc(OC)c(OC)c2)C(C)C)cc1OC (stereo not drawn)	15	50					10				
CCN(CC)CCCC(C)Nc1ccnc2cc(Cl)ccc12 (stereo not drawn) [CHLOROQUINE]	50	85	2	3				10			
CN(C)CCOc1ccc(/C(=C(/CCCl)c2ccccc2)c2ccccc2)cc1 [TOREMIFENE]	30	65	1	10					50		
CCN(CC)Cc1cc(Nc2ccnc3cc(Cl)ccc23)ccc1O [AMODIAQUINE]	70	90	1	-5						60	
CCN(CC)CCOc1ccc(C(=C(Cl)c2ccccc2)c2ccccc2)cc1 [CLOMIPHENE]	60	80	2	12							30

Reference: ChEMBL document CHEMBL4303121, “Human organs-on-chips as tools for repurposing approved drugs as potential influenza and COVID19 therapeutics in viral pandemics” (2020)
